Source: patent publication US20260234157A1, “COMPOUND AND METHOD FOR TARGETED DEGRADATION OF ANDROGEN RECEPTOR” (Gan & Lee Pharmaceuticals Co., Ltd., priority 2023, published 2026)
Residue numbers refer to the chain shown, from its start. Read-outs that look alike come from different tables or passages of the source.

Legend:
Assay type in all cases: cell-based
AR protein [1] = molecular target: T1, AR protein (Homo sapiens, UniProt P10275, T878A); test: Degradation of AR protein in LNCaP cells (Western blot); settings: for inhibition at 0.01 µM: read-out: Degradation rates of the AR protein in LNCaP cells, 10 nM (%); for inhibition at 0.1 µM: read-out: Degradation rates of the AR protein in LNCaP cells, 100 nM (%)
T1 construct: degradation activity of the compounds disclosed in the present disclosure on AR protein in LNCaP cells; host or cells: LNCaP FGC
T1 sequence (P10275 1-920 T878A): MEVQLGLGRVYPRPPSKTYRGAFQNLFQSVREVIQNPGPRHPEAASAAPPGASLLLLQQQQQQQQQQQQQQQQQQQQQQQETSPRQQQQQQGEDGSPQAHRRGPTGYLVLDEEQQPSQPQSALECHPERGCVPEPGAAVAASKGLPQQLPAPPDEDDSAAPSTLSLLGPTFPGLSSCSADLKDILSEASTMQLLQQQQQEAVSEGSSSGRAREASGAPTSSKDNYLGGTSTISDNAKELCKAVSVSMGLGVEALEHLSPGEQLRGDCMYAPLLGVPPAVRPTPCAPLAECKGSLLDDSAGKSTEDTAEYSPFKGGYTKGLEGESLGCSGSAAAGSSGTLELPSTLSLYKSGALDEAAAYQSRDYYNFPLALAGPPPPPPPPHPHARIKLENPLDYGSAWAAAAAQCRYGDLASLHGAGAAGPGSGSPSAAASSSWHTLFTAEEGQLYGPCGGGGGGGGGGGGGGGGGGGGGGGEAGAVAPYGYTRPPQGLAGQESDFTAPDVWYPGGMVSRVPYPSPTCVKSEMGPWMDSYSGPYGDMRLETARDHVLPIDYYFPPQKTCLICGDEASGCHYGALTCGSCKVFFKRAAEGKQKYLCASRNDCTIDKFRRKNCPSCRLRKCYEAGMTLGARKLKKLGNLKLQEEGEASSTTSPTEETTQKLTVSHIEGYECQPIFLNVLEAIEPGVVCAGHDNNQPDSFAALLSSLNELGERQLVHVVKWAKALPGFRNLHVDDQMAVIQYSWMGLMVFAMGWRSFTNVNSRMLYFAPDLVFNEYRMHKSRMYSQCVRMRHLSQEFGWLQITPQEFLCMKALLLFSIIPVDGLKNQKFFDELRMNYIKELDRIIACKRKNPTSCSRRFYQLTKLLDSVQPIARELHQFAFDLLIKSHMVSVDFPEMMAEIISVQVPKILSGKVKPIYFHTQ
Protocol: The degradation activity of the compounds disclosed in the present disclosure on AR protein in LNCaP cells (cell source: ATCC)
(§1) Corresponding solvent controls were also set and cultured for 8 hours. After 8 hours of cultivation, the culture medium was removed and the cells were washed with PBS. RIPA lysis buffer containing 1% Protease Inhibitor Cocktail was added, and the total protein extract was obtained by lysis and centrifugation. The protein concentration in the extract was detected by BCA method. Protein electrophoresis was performed using SDS-PAGE, followed by transfer of the protein onto a PVDF (Millipore Sigma catalog No. PSRP010R5) membrane at 100V constant voltage for 60 minutes. The PVDF membrane was then placed in a 1×TBST solution with 5% milk and blocked at room temperature for 1 hour. […] The primary antibody solution was discarded and the PVDF membrane was washed three times with 1×TBST for 5 minutes/time. […] The secondary antibody solution was discarded and the PVDF membrane was washed three times with 1×TBST for 5 minutes/time. Western blot imaging was performed by using a dual color infrared laser imaging system (Licor catalog No. Odyssey CLX). Bands were analyzed in grayscale using Image Studio software. For each sample, GAPDH protein bands were detected as internal reference. The degradation rates of the AR protein for the compounds and the positive control sample were calculated based on grayscale of the protein bands.

AR protein [2] = molecular target: T2, AR protein (Homo sapiens, UniProt P10275); test: Degradation of AR protein in VCaP cells (Western blot); settings: 8 hours; for inhibition at 0.01 µM: read-out: Degradation rate of the AR protein in VCaP cells, 10 nM (%); for inhibition at 0.1 µM: read-out: Degradation rate of the AR protein in VCaP cells, 100 nM (%)
T2 construct: degradation activity of the compounds disclosed in the present disclosure on AR protein in VCaP cells; host or cells: VCaP
T2 sequence (P10275 1-920): T1 sequence (P10275 1-920 T878A) with A878T
Protocol: The degradation activity of the compounds disclosed in the present disclosure on AR protein in VCaP cells (cell source: ATCC)
as §1

LNCaP FGC cells = test: Inhibition of proliferation of LNCaP cells (WST-8)
Protocol: The cells were cultured in a cell culture incubator with 5% CO2 at 37° C. overnight. […] On the sixth day, 96 well plates were taken out, and 20 μL of WST-8 (Beytime, C0040) reagent was added to each well.

[3] = LNCaP cells, compound 10 nM, 8 hours, Western blot grayscale, GAPDH internal reference
[4] = LNCaP cells, compound 100 nM, 8 hours, Western blot grayscale, GAPDH internal reference
[5] = Homo sapiens, LNCaP, 96 h, LNCaP FGC cells, 96 hours, WST-8 absorbance at 450 nm, read-out: IC50 for inhibiting the proliferation of LNCaP cells

inhibition at 0.01 µM (AR protein [1]; [3])	inhibition at 0.1 µM (AR protein [1]; [4])	Degradation rate of the AR protein in VCaP cells, 10 nM (%) (AR protein [2]; compound at 10 nM)	Degradation rate of the AR protein in VCaP cells, 100 nM (%) (AR protein [2]; compound at 100 nM)	IC50 (LNCaP FGC cells; LNCaP FGC cells, 96 hours, WST-8 absorbance at 450 nm, read-out: IC50 for inhibiting the proliferation of LNCaP cells)	SMILES	inhibition at 0.01 µM (AR protein [2]; compound at 10 nM)	inhibition at 0.1 µM (AR protein [2]; compound at 100 nM)	IC50 (LNCaP FGC cells; [5])	inhibition at 0.01 µM (AR protein [1]; LNCaP, 8 h)	inhibition at 0.1 µM (AR protein [1]; LNCaP, 8 h)	IC50 (LNCaP FGC cells; Homo sapiens, LNCaP, 96 h, read-out: IC50 for inhibiting the proliferation of LNCaP cells, LNCaP FGC cells, 96 hours, WST-8 absorbance at 450 nm)
15%	31%				COc1cc(O[C@H]2C(C)(C)[C@H](NC(=O)c3ccc(N4CCC(C)(CN5CCC6(CCc7ccc8c(c7O6)C(=O)N(C6CCC(=O)NC6=O)C8=O)CC5)CC4)cc3)C2(C)C)ccc1C#N (some centres unmarked) [Compound 268]	-26%	-32%	88.6 µM			
36%	19%	15%	42%	71.9 µM	N#Cc1ccc(O[C@H]2CC[C@H](NC(=O)c3ccc(N4CCC(F)(CN5CCC6(CCc7ccc8c(c7O6)CN(C6CCC(=O)NC6=O)C8=O)CC5)CC4)nn3)CC2)cc1Cl (some centres unmarked) [Compound 166]	43%	60%				
44%	27%				N#Cc1ccc(O[C@H]2CC[C@H](NC(=O)c3ccc(N4CCC5(CC4)COc4c5ccc5c4CN(C4CCC(=O)NC4=O)C5=O)nn3)CC2)cc1Cl (some centres unmarked) [Compound 200]	25%	57%	91 µM			
68%	66%				N#Cc1ccc(O[C@H]2CC[C@H](NC(=O)c3ccc(N4CCC5(CC4)CC(N4CCC6(CC4)COc4c(ccc7c4C(=O)N(C4CCC(=O)NC4=O)C7)C6)C5)nn3)CC2)cc1Cl (some centres unmarked) [Compound 188]	63%	79%	3.72 µM			
					N#Cc1ccc(O[C@H]2CC[C@H](NC(=O)c3ccc(N4CCC(F)(CN5CCC6(CC5)COc5c6ccc6c5CN(C5CCC(=O)NC5=O)C6=O)CC4)nc3)CC2)cc1Cl (some centres unmarked) [Compound 216]	54%	80%	0.006 µM			
53%	75%				N#Cc1ccc(O[C@H]2CC[C@H](NC(=O)c3ccc(N4CCC5(CCC(N6CCC7(CC6)COc6c(ccc8c6C(=O)N(C6CCC(=O)NC6=O)C8)C7)CC5)CC4)nn3)CC2)cc1Cl (some centres unmarked) [Compound 190]			5.15 µM			
37%	41%				N#Cc1ccc(O[C@H]2CC[C@H](NC(=O)c3ccc(N4CCC5(CCC(C(=O)N6CCC7(CC6)COc6c7ccc7c6CN(C6CCC(=O)NC6=O)C7=O)CC5)CC4)nn3)CC2)cc1Cl (some centres unmarked) [Compound 253]	10%	55%	0.55 µM			
					COc1cc(O[C@H]2CC[C@H](NC(=O)c3ccc(N4CCC(CN5CC6(CCc7cc8c(cc7O6)C(=O)N(C6CCC(=O)NC6=O)C8=O)C5)(OC)CC4)cc3)CC2)ccc1C#N (some centres unmarked) [Compound 285]	-5%	66%		40%	54%	0.84 µM
27%	55%				COc1cc(O[C@H]2C(C)(C)[C@H](NC(=O)c3ccc(N4CCC(CN5CCC6(CCc7ccc8c(c7O6)CN(C6CCC(=O)NC6=O)C8=O)CC5)CC4)cc3)C2(C)C)ccc1C#N (some centres unmarked) [Compound 298]			12.1 µM			

SMILES	inhibition at 0.01 µM (AR protein [1]; [3])	inhibition at 0.1 µM (AR protein [1]; [4])	Degradation rate of the AR protein in VCaP cells, 10 nM (%) (AR protein [2]; compound at 10 nM)	Degradation rate of the AR protein in VCaP cells, 100 nM (%) (AR protein [2]; compound at 100 nM)	IC50 (LNCaP FGC cells; LNCaP FGC cells, 96 hours, WST-8 absorbance at 450 nm, read-out: IC50 for inhibiting the proliferation of LNCaP cells)	inhibition at 0.01 µM (AR protein [2]; compound at 10 nM)	inhibition at 0.1 µM (AR protein [2]; compound at 100 nM)	IC50 (LNCaP FGC cells; [5])	inhibition at 0.01 µM (AR protein [1]; LNCaP, 8 h)	inhibition at 0.1 µM (AR protein [1]; LNCaP, 8 h)	IC50 (LNCaP FGC cells; Homo sapiens, LNCaP, 96 h, read-out: IC50 for inhibiting the proliferation of LNCaP cells, LNCaP FGC cells, 96 hours, WST-8 absorbance at 450 nm)
COc1cc(O[C@H]2C(C)(C)[C@H](NC(=O)c3ccc(N4CCC(CN5CCC6(CC5)COc5c6ccc6c5CN(C5CCC(=O)NC5=O)C6=O)(OC)CC4)cc3)C2(C)C)ccc1C#N (some centres unmarked) [Compound 217]	-2%	48%				49%	83%	0.005 µM			
COc1cc(OC2CCC(NC(=O)c3cnc(N4CCC(C)(CN5CCC6(CC5)COc5c6ccc6c5CN(C5CCC(=O)NC5=O)C6=O)CC4)nc3)CC2)ccc1C#N (centres unmarked) [Compound 247]	-10%	27%				53%	70%	0.015 µM			
CC1(CN2CCC3(CC2)COc2c3ccc3c2CN(C2CCC(=O)NC2=O)C3=O)CCN(c2ccc(C(=O)N[C@H]3C(C)(C)[C@H](Oc4ccc(C#N)c(Cl)c4)C3(C)C)cc2)CC1 (some centres unmarked) [Compound 222]	4%	75%				8%	61%	0.88 µM			
N#Cc1ccc(O[C@H]2CC[C@H](NC(=O)c3ccc(N4CC[C@H](CN5CCC6(CC5)COc5c6ccc6c5CN(C5CCC(=O)NC5=O)C6=O)[C@H](F)C4)nn3)CC2)cc1Cl (some centres unmarked) [Compound 226]	52%	34%				74%	83%	0.0025 µM			
COCC1(CN2CCC3(CC2)COc2c3ccc3c2CN(C2CCC(=O)NC2=O)C3=O)CCN(c2ccc(C(=O)N[C@H]3CC[C@H](Oc4ccc(C#N)c(Cl)c4)CC3)nn2)CC1 (some centres unmarked) [Compound 258]	71%	67%				60%	84%	0.017 µM			
CC1(C)[C@H](NC(=O)c2ccc(N3CCC(C#N)(CN4CCC5(CC4)COc4c5ccc5c4CN(C4CCC(=O)NC4=O)C5=O)CC3)nn2)C(C)(C)[C@H]1Oc1ccc(C#N)c(Cl)c1 (some centres unmarked) [Compound 225]	-35%	7%				-29%	30%	0.03 µM			
